Several values for one entry are separate records, joined by “and”; a condition that tells them apart may be missing. Equal entries are not always repeated. Inconclusive results and toxic doses are left out.
Test system: P388 leukemia ip, CD2F1 mice, survival T/C
Assay: NCI In Vivo Anticancer Drug Screen. Data for tumor model P388 Leukemia (intraperitoneal) in CD2F1 (CDF1) mice
Settings: endpoint: median survival time, higher = longer survival
Summary of the method: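 Mice carrying the transplanted tumor received test compound or vehicle. Survival was recorded in each group, and the value is the treated-group measurement divided by that of the vehicle-treated control group.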

[1] = dose: 50.0 mg/kg/injection, schedule: Q01DX005 (ip), vehicle: saline with Tween-80

C/C1=C\C[C@@H](O)/C(C)=C/[C@H]2OC(=O)[C@H](C)[C@@H]2CC1
T/C (dose: 8.75 mg/kg/injection, schedule: Q01DX005 (ip), vehicle: Klucel (hydroxypropylcellulose) (HPC)): 94 % of control
T/C (dose: 17.5 mg/kg/injection, schedule: Q01DX005 (ip), vehicle: Klucel (hydroxypropylcellulose) (HPC)): 102 % of control
T/C (dose: 35.0 mg/kg/injection, schedule: Q01DX005 (ip), vehicle: Klucel (hydroxypropylcellulose) (HPC)): 100 % of control
T/C (dose: 70.0 mg/kg/injection, schedule: Q01DX005 (ip), vehicle: Klucel (hydroxypropylcellulose) (HPC)): 86 % of control

O=C1CSC(c2ccc(F)cc2)N1c1nncs1 (stereo not drawn)
T/C (dose: 60.0 mg/kg/injection, schedule: Q01DX005 (ip), vehicle: saline with Tween-80): 99 % of control
T/C (dose: 120.0 mg/kg/injection, schedule: Q01DX005 (ip), vehicle: saline with Tween-80): 97 % of control
T/C (dose: 240.0 mg/kg/injection, schedule: Q01DX005 (ip), vehicle: saline with Tween-80): 101 % of control

CC([NH-])C[NH-].[I][Pt+2][I] (stereo not drawn)
T/C (dose: 100.0 mg/kg/injection, schedule: Q04DX002 (ip), vehicle: saline with Tween-80): 154 % of control and 151 % of control

O=C1CNC(=O)c2cc(Cl)ccc2N1
T/C (dose: 50.0 mg/kg/injection, schedule: Q01DX009 (ip), vehicle: Klucel (hydroxypropylcellulose) (HPC)): 103 % of control
T/C (dose: 100.0 mg/kg/injection, schedule: Q01DX009 (ip), vehicle: Klucel (hydroxypropylcellulose) (HPC)): 97 % of control
T/C (dose: 200.0 mg/kg/injection, schedule: Q01DX009 (ip), vehicle: Klucel (hydroxypropylcellulose) (HPC)): 100 % of control

F[C](F)(F)[Hg][Br]
T/C (dose: 6.25 mg/kg/injection, schedule: Q04DX002 (ip), vehicle: saline): 100 % of control
T/C (dose: 12.5 mg/kg/injection, schedule: Q04DX002 (ip), vehicle: saline): 92 % of control
T/C (dose: 25.0 mg/kg/injection, schedule: Q04DX002 (ip), vehicle: saline): 106 % of control

COc1ccc(Cc2cc(O)c(OC)cc2O)cc1
T/C (dose: 0.32 mg/kg/injection, schedule: Q01DX009 (ip), vehicle: saline with Tween-80): 104 % of control
T/C (dose: 0.63 mg/kg/injection, schedule: Q01DX009 (ip), vehicle: saline with Tween-80): 107 % of control
T/C (dose: 1.25 mg/kg/injection, schedule: Q01DX009 (ip), vehicle: saline with Tween-80): 104 % of control
T/C (dose: 2.5 mg/kg/injection, schedule: Q01DX009 (ip), vehicle: saline with Tween-80): 111 % of control
T/C (dose: 5.0 mg/kg/injection, schedule: Q01DX009 (ip), vehicle: saline with Tween-80): 100 % of control and 108 % of control
T/C (dose: 10.0 mg/kg/injection, schedule: Q01DX009 (ip), vehicle: saline with Tween-80): 106 % of control

COc1ccc(CC2CCCNC2C(=O)O)cc1 (stereo not drawn)
T/C (dose: 50.0 mg/kg/injection, schedule: Q01DX009 (ip), vehicle: saline with Tween-80): 114 % of control
T/C (dose: 100.0 mg/kg/injection, schedule: Q01DX009 (ip), vehicle: saline with Tween-80): 101 % of control
T/C (dose: 200.0 mg/kg/injection, schedule: Q01DX009 (ip), vehicle: saline with Tween-80): 99 % of control

CC(=O)c1ccc2c3c(cc(C)c2c1)CCCC3
T/C (dose: 50.0 mg/kg/injection, schedule: Q01DX005 (ip), vehicle: Klucel (hydroxypropylcellulose) (HPC)): 103 % of control
T/C (dose: 100.0 mg/kg/injection, schedule: Q01DX005 (ip), vehicle: Klucel (hydroxypropylcellulose) (HPC)): 99 % of control
T/C (dose: 200.0 mg/kg/injection, schedule: Q01DX005 (ip), vehicle: Klucel (hydroxypropylcellulose) (HPC)): 89 % of control

NS(=O)(=O)c1ccc(C(=O)O)cc1
T/C (dose: 25.0 mg/kg/injection, schedule: Q04DX003 (ip), vehicle: saline with Tween-80): 101 % of control
T/C (dose: 50.0 mg/kg/injection, schedule: Q04DX003 (ip), vehicle: saline with Tween-80): 94 % of control
T/C (dose: 100.0 mg/kg/injection, schedule: Q04DX003 (ip), vehicle: saline with Tween-80): 100 % of control
T/C (dose: 200.0 mg/kg/injection, schedule: Q04DX003 (ip), vehicle: saline with Tween-80): 103 % of control

CCN(CC)CCNc1ccccc1
T/C (dose: 60.0 mg/kg/injection, schedule: Q01DX005 (ip), vehicle: saline): 99 % of control
T/C (dose: 120.0 mg/kg/injection, schedule: Q01DX005 (ip), vehicle: saline): 99 % of control

Cc1cn2ccccc2c[n+]1=O
T/C (dose: 5.0 mg/kg/injection, schedule: Q01DX009 (ip), vehicle: saline sonified): 104 % of control
T/C (dose: 10.0 mg/kg/injection, schedule: Q01DX009 (ip), vehicle: saline sonified): 90 % of control

[Cl][Mo]([Cl])([Cl])[Cl].[Cl][Mo]([Cl])([Cl])[Cl]
T/C (dose: 25.0 mg/kg/injection, schedule: Q01DX009 (ip), vehicle: saline): 104 % of control
T/C (dose: 50.0 mg/kg/injection, schedule: Q01DX009 (ip), vehicle: saline): 103 % of control
T/C (dose: 100.0 mg/kg/injection, schedule: Q01DX009 (ip), vehicle: saline): 99 % of control

COc1ccc(C(=O)NC(c2ccccc2)c2cccs2)cc1 (stereo not drawn)
T/C (dose: 100.0 mg/kg/injection, schedule: Q01DX001 (ip), vehicle: Klucel (hydroxypropylcellulose) (HPC)): 113 % of control
T/C (dose: 200.0 mg/kg/injection, schedule: Q01DX001 (ip), vehicle: Klucel (hydroxypropylcellulose) (HPC)): 104 % of control
T/C (dose: 400.0 mg/kg/injection, schedule: Q01DX001 (ip), vehicle: Klucel (hydroxypropylcellulose) (HPC)): 109 % of control

CC(=O)SC(C(=O)O)C(SC(C)=O)C(=O)O (stereo not drawn)
T/C (dose: 25.0 mg/kg/injection, schedule: Q01DX009 (ip), vehicle: other): 106 % of control
T/C (dose: 50.0 mg/kg/injection, schedule: Q01DX009 (ip), vehicle: other): 115 % of control
T/C (dose: 100.0 mg/kg/injection, schedule: Q01DX009 (ip), vehicle: other): 102 % of control
T/C (dose: 200.0 mg/kg/injection, schedule: Q01DX009 (ip), vehicle: other): 89 % of control

O=C(O)c1cnc2cc3c(cc2c1Nc1ccc2c(c1)OCO2)OCO3
T/C (dose: 60.0 mg/kg/injection, schedule: Q01DX005 (ip), vehicle: Klucel (hydroxypropylcellulose) (HPC)): 93 % of control
T/C (dose: 120.0 mg/kg/injection, schedule: Q01DX005 (ip), vehicle: Klucel (hydroxypropylcellulose) (HPC)): 92 % of control
T/C (dose: 240.0 mg/kg/injection, schedule: Q01DX005 (ip), vehicle: Klucel (hydroxypropylcellulose) (HPC)): 96 % of control

Cc1c(-c2ccc(-c3ccccc3F)cc2)nc2ccc(F)cc2c1C(=O)O
T/C (dose: 5.62 mg/kg/injection, schedule: Q01DX005 (ip), vehicle: water): 120 % of control
T/C (dose: 11.25 mg/kg/injection, schedule: Q01DX005 (ip), vehicle: water): 121 % of control
T/C (dose: 45.0 mg/kg/injection, schedule: Q01DX005 (ip), vehicle: water): 157 % of control
T/C (dose: 90.0 mg/kg/injection, schedule: Q01DX005 (ip), vehicle: water): 158 % of control

Cc1cc(C)n(P2(n3nc(C)cc3C)=NP(n3nc(C)cc3C)(n3nc(C)cc3C)=NP(n3nc(C)cc3C)(n3nc(C)cc3C)=N2)n1
T/C [1]: 98 % of control
T/C (dose: 100.0 mg/kg/injection, schedule: Q01DX005 (ip), vehicle: saline with Tween-80): 98 % of control
T/C (dose: 200.0 mg/kg/injection, schedule: Q01DX005 (ip), vehicle: saline with Tween-80): 99 % of control

O=C(Nc1cccc(C2=NCCCN2)c1)Nc1ccc(NC(=O)Nc2cccc(C3=NCCCN3)c2)c(Cl)c1
T/C (dose: 0.6 mg/kg/injection, schedule: Q04DX003 (ip), vehicle: saline): 109 % of control
T/C (dose: 1.25 mg/kg/injection, schedule: Q04DX003 (ip), vehicle: saline): 109 % of control
T/C (dose: 2.5 mg/kg/injection, schedule: Q04DX003 (ip), vehicle: saline): 109 % of control
T/C (dose: 10.0 mg/kg/injection, schedule: Q04DX003 (ip), vehicle: saline with Tween-80): 170 % of control
T/C (dose: 20.0 mg/kg/injection, schedule: Q04DX003 (ip), vehicle: saline): 164 % of control
T/C (dose: 26.4 mg/kg/injection, schedule: Q04DX003 (ip), vehicle: saline with Tween-80): 183 % of control
T/C (dose: 40.0 mg/kg/injection, schedule: Q04DX003 (ip), vehicle: saline): 204 % of control

CC12CCC3c4ccc(O)cc4CCC3C1C/C(=C\C(=O)O)C2=O (stereo not drawn)
T/C (dose: 3.13 mg/kg/injection, schedule: Q01DX009 (ip), vehicle: Klucel (hydroxypropylcellulose) (HPC)): 104 % of control
T/C (dose: 6.25 mg/kg/injection, schedule: Q01DX009 (ip), vehicle: Klucel (hydroxypropylcellulose) (HPC)): 111 % of control
T/C (dose: 12.5 mg/kg/injection, schedule: Q01DX009 (ip), vehicle: Klucel (hydroxypropylcellulose) (HPC)): 108 % of control
T/C (dose: 25.0 mg/kg/injection, schedule: Q01DX009 (ip), vehicle: Klucel (hydroxypropylcellulose) (HPC)): 111 % of control

CC(C)NC(=O)OCc1c(COC(=O)NC(C)C)c(-c2ccc(Cl)c(Cl)c2)n2c1CS(=O)(=O)C2
T/C (dose: 6.25 mg/kg/injection, schedule: Q01DX005 (ip), vehicle: saline with Tween-80): 101 % of control
T/C (dose: 12.5 mg/kg/injection, schedule: Q01DX005 (ip), vehicle: saline with Tween-80): 100 % of control and 87 % of control
T/C [1]: 86 % of control
